Measured values as given in patent publication US20230348447A1, “OXAZOLIDINONE COMPOUNDS, LIPOSOME COMPOSITIONS COMPRISING OXAZOLIDINONE COMPOUNDS AND METHOD OF USE THEREOF” (priority 2020, published 2023).
Converted amounts (≈) assume the structure as drawn. “And” between values parts separate entries of the source, which are not always exact repeats. Identical values can stand only once. Like-named read-outs stand apart in the source and are kept apart here.

Tests used:
M.tb H37Rv = test: Broth microdilution MIC with Alamar blue endpoint (MABA) / OD600; type: cell-based, Mycobacterium tuberculosis
[1] = Liposome loading / encapsulation efficiency (General protocol); conditions: for maximum drug load: HSPC:Chol 3:2, 0.5 mol% PEG-DSG (Example 14)
[2] = system: M. Tuberculosis Erdman or H37Rv vs VERO or HepG2 cells; test: Selectivity Index (mammalian cell IC50 / bacterial MIC); design: species or system Mycobacterium tuberculosis
MRSA ATCC 43300 = test: MIC against methicillin resistant Staphylococcus aureus (MRSA); conditions: read-out: MRSA MIC, ATCC 43300
[3] = In vitro burst release of liposomal drug in plasma, human; conditions: mouse or human plasma, 20 min 37° C., 0.5 M AS liposomes, 40-65 mol% Chol (FIG. 5A, 5B)
Experimental: The plasma was thawed, if necessary, adjusted to pH 7.4 with 1 N HCl, and sequentially filtered through glass microfiber filters (GF/C), 1 µm polyethersulfone (PES), and 0.22 µm PES filters. Plasma (80 µl) was mixed with liposomal drug formulations (20 µl) in a 0.5 ml Eppendorf tube. The mixture was subsequently incubated for 20 min at 37° C. and then put into chilled water.
Incubation time was 20 min.

M. abscessus = test: MIC in nontuberculosis mycobacteria (microbroth dilution, resazurin); type: cell-based, Mycobacterium abscessus; conditions: Mycobacteroides abscessus
M.avium = test: as above; type: cell-based, Mycobacterium avium; conditions: for MIC: Mycobacterium avium
MRSA ATCC BAA-1556 = test: MIC against methicillin resistant Staphylococcus aureus (MRSA)
MRSA 880 NR-49120 = test: as above; conditions: read-out: MRSA MIC, 880 NR-49120
[4] = Aqueous solubility (visually clear solutions); type: physicochemical; conditions: aqueous, 1 N HCl and/or water added
Experimental: Working stocks of the compounds were prepared as follows: to an aliquot of a compound (free base) in a powder form 1-1.5 equivalents of HCl in the form of 1 N aqueous solution was added, and the mixture was vortexed until homogeneity. To the resulting cake or syrup, water was added typically to the final 10 mg/ml, and complete dissolution was observed. In some instances, 0.95 equivalents of HCl were added to the free base form of the drug, and 20 mg/ml stock solution was prepared.
Aqueous solubility of the compounds of the present disclosure is illustrated by the following observations of obtaining visually clear solutions: […]

[5] = system: human hepatocyte/liver (HepG2; ATCC #HB8065) cells; test: In vitro cytotoxicity (PrestoBlue cell viability), HepG2; type: cell-based; conditions: Homo sapiens, HepG2, 72 h, read-out: Cell viability IC50, HepG2
M. kansasii = test: MIC in nontuberculosis mycobacteria (microbroth dilution, resazurin); type: cell-based; conditions: Mycobacterium kansasii
M. massiliense = test: as above; type: cell-based, Mycobacterium massiliense; conditions: Mycobacteroides abscessus
[6] = system: mitochondrial protein synthesis (COX-1/SDH-A ratio) in H9C2 rat heart myoblast cells; test: Mitochondrial protein synthesis inhibition (MitoBiogenesis in-cell ELISA, COX-1/SDH-A); type: cell-based; conditions: 120 h, five days, read-out: MPS IC50
M. chelonae = test: MIC in nontuberculosis mycobacteria (microbroth dilution, resazurin); type: cell-based, Mycobacterium chelonae; conditions: Mycobacteroides chelonae
[7] = system: African green monkey kidney (Vero; ATCC # CCL81) cells; test: In vitro cytotoxicity (PrestoBlue cell viability), Vero; type: cell-based; conditions: Chlorocebus sabaeus, Vero, 72 h, read-out: Cell viability IC50, VERO
M.tb Erdman = test: Broth microdilution MIC with Alamar blue endpoint (MABA) / OD600; type: cell-based, Mycobacterium tuberculosis
[8] = from drugbank.ca; cited from earlier work

SMILES: CN(C)CCn1nnc(-c2ccc(-c3ccc(N4C[C@H](CN)OC4=O)cc3F)cn2)n1.Cl [AKG-28]
- MIC (M.tb H37Rv; Mycobacterium tuberculosis, H37RV, read-out: MIC (H37Rv)): 0.015 µg/mL
- MIC (M.tb H37Rv; Mycobacterium tuberculosis, H37RV, read-out: Mycobacterium tuberculosis MIC, H37Rv): 0.015 µg/mL
- maximum drug load ([1]; 0.5 M AS): 404-424 g/mol PhL
- loading efficiency ([1]; 0.5 M AS, at drug loads of 302 (AKG-28) and 387-764 (AKG-38) g/mol PhL): quantitative loading
- maximum drug load ([1]; 1 N TEA-SOS): 315-328 g/mol PhL
- maximum loading efficiency ([1]; 1 N TEA-SOS, at drug load 250 (AKG-28) and 400-777 (AKG-38) g/mol PhL): 83.5%
- liposome aggregation during drug loading ([1]; 30 mol% cholesterol, 1 N TEA-SOS, AKG-28: 5 mol% PEG-DSG or PEG-DSPE, AKG-38: 5 mol% PEG-DSPE): irreversibly aggregated during the drug loading
- loading efficiency (from unencapsulated drug in pre-concentration diafiltrate) ([1]; scaled-up lots, HSPC:Chol:PEG-DSPE 45:55:2.25, 0.5 M AS, DL 250 (AKG-28) or 450 (AKG-38) g/mol): 99.1% and 99.3%
- Selectivity Index (SI) Erd/HepG2 [2]: 446.7
- Selectivity Index (SI) Erd/VERO [2]: 2766.7
- MIC (MRSA ATCC 43300): > 50 µg/mL
- burst release phenomenon in plasma in vitro [3]: observed in human plasma for the formulations containing 40 mol.% cholesterol, but not for the formulations with 45 mol.% or more of cholesterol
- MIC (M. abscessus; M. abscessus sbsp. abscessus strain 21): 0.25 µg/mL
- MIC (M. abscessus; M. abscessus sbsp. abscessus strain 1513): 32 µg/mL
- MIC (M. abscessus; M. abscessus sbsp. abscessus strain 1948): 0.125 µg/mL
- potency relative to tedizolid in NTM species and strains (M.avium; M.avium, M. chelonae, M. abscessus and M. kansasii): generally more potent than tedizolid
- MIC (M.avium; M. avium sbsp. avium strain 2285 R, read-out: MIC): 0.06 µg/mL
- MIC (M.avium; M. avium sbsp. avium strain 2285 S): 0.125 µg/mL
- MIC (M.avium; M. avium sbsp. avium strain 3993): 0.125 µg/mL
- MIC (MRSA ATCC BAA-1556; read-out: MRSA MIC): > 50 µg/mL
- MIC (MRSA ATCC BAA-1556; read-out: MRSA MIC, ATCC BAA-1556): > 50 µg/mL
- MIC (MRSA 880 NR-49120): > 50 µg/mL
- Concentration % (w/w) of free base (visually clear solution) [4]: 7.3 % (w/w)
- IC50 [5]: 13.4 µg/mL
- MIC (M. kansasii): 0.125 µg/mL
- MIC (M. kansasii; M. kansasii strain 662, read-out: MIC): > 32 µg/mL
- MIC (M. massiliense): 0.25 µg/mL
- MIC (M. massiliense; CIP108297): 1 µg/mL
- IC50 [6]: 0.411 µg/mL
- MIC (M. chelonae; M. chelonae strain 49): 0.06 µg/mL
- MIC (M. chelonae; M. chelonae strain 69): 0.5 µg/mL
- MIC (M. chelonae; M. chelonae strain 35752): 0.125 µg/mL
- IC50 [7]: 83 µg/mL
- fold more potent than linezolid in killing M. Tuberculosis in vitro (M.tb Erdman; Erdmann strain): 33 fold
- MIC (M.tb Erdman; Mycobacterium tuberculosis, ERDMAN, read-out: Mycobacterium tuberculosis MIC, Erdman): 0.03 µg/mL

SMILES: CC(=O)NC[C@H]1CN(c2ccc(N3CCSCC3)c(F)c2)C(=O)O1 [Sutezolid, reference compound]
- MIC (M.tb H37Rv; Mycobacterium tuberculosis, H37RV; read-out: Mycobacterium tuberculosis MIC, H37Rv): 0.5 µg/mL (≈ 1.41 µM)
- known aqueous solubility [8]: 237 µg/mL
- MIC (M.tb Erdman; Mycobacterium tuberculosis, ERDMAN; read-out: Mycobacterium tuberculosis MIC, Erdman): 0.5 µg/mL (≈ 1.41 µM)
